Measurements taken from US20250019382A1, “NOVEL INHIBITORS OF CYCLIN-DEPENDENT KINASES” (Origenis Gmbh, priority 2021, published 2025).

What was measured:
CDK2/cyclin A = molecular target: T1, CDK2/cyclin A (Homo sapiens, UniProt P24941); experiment: CDK2/cyclin A Z'-LYTE (SelectScreen); format: biochemical; conditions: duplicate, averaged
T1 construct: purchased Invitrogen Ltd., Paisley, UK (SelectScreen service)
Experimental: (§1) The CDK2 inhibitory activity of the compounds of the invention was measured in combination with different […] and assay systems. The SelectScreen™ assessment of the kinase inhibitory activity of CDK2 data point was performed in duplicate and averaged data is reported here. The SelectScreen™ kinase inhibitor assay service was used (Invitrogen Ltd., Paisley, UK) to investigate the ability of the compounds of the invention to inhibit CDK2 in dose dependent manner using ten inhibitor concentrations from 10 micromolar down to […] in half-logarithmic steps. The inhibitor concentration was plotted against the percent inhibition or displacement to determine the IC50 using XLFit 5.5 (IDBS, Guildford) to fit to a sigmoidal dose response curve with a variable slope.

CDK9/CyclinT1 = molecular target: T2, CDK9/CyclinT1 (Homo sapiens, UniProt P50750); experiment: CDK9/T1 ADPGlo kinase assay; format: biochemical; conditions: CDK9/CyclinT1 6 nM, ATP 10 microM, PDKtide 40 microM, 120 min RT
T2 construct: purchased ProQinase/Reaction Biology, USA #0371-0345-1
Experimental: The testing compound was evaluated in 12 concentrations in a 1:3 dilution series, starting from 5microM as the highest concentration.
In a white 384 microplate (Greiner bio-one, Austria #784904,) with 2 microL of 3-fold concentrated CDK9/CyclinT1 (ProQinase/Reaction Biology, USA #0371-0345-1, LOT.: 012), final concentration (f.c.) 6 nM, in 1×kinase buffer, 2 microL of compound (3× fold concentrated in f.c. 1.66% DMSO/H2O) was added and incubated at Room Temperature (RT) for 10 min. Then 2 microL of Substrate/ATP-Mix (3×PDKtide f.c. 40 microM, SignalChem Biotech, Canada via Biozol, Eching, Germany #P10-58, LOT.: L2230-7 and 3×UltraPure ATP f.c. 10 microM (ADP Glo Kinase assay, Promega GmbH, Germany #V9102)) were added, mixed and incubated for 120 min at RT.
After incubation time, 5 microL of ADP Glo reagent (ready to use, ADP Glo Kinase assay, Promega GmbH, Germany #V9102) were added, mixed and incubated for 40 min at RT.
In the last step, 10 microL of ADP Glo Detection reagent (ready to use, ADP Glo Kinase assay, Promega GmbH, Germany #V9102) were added, mixed and incubated for 30 min at RT.
GloMax Discover GM3000 Reader (Promega GmbH, Germany 9700000249) was used for the readout.
The inhibitor concentration was plotted against the luminescence to determine the IC50 using XLFit 5.5 (IDBS, Guildford) to fit to a sigmoidal dose response curve with a variable slope.

CDK2/cyclin A1 [1] = molecular target: T3, CDK2/cyclin A1 (Homo sapiens, UniProt P24941); experiment: CDK2/cyclin A1 LanthaScreen (SelectScreen), second list; format: binding; conditions: second list under the same heading; duplicate, averaged
T3 construct: purchased Invitrogen Ltd., Paisley, UK (SelectScreen service)
Experimental: as §1

CDK2/cyclin E1 = molecular target: T4, CDK2/cyclin E1 (Homo sapiens, UniProt P24941); experiment: CDK2/cyclin E1 LanthaScreen (SelectScreen); format: binding; conditions: duplicate, averaged
T4 construct: purchased Invitrogen Ltd., Paisley, UK (SelectScreen service)
Experimental: as §1

CDK2/cyclin A1 [2] = molecular target: T3, CDK2/cyclin A1; experiment: CDK2/cyclin A1 LanthaScreen (SelectScreen); format: binding; conditions: first list; duplicate, averaged
Experimental: as §1

T2 sequence (P50750 whole entry): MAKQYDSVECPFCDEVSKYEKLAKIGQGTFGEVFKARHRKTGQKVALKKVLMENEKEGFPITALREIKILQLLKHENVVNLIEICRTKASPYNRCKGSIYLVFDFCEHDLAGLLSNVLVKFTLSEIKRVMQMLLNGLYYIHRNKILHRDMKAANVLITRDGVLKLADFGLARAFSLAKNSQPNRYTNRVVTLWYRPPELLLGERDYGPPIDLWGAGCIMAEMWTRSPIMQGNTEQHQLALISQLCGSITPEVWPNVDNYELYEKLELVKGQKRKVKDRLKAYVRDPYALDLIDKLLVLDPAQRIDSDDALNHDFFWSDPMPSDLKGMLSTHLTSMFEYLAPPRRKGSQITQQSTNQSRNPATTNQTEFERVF
T2 sequence (O60563 whole entry partner): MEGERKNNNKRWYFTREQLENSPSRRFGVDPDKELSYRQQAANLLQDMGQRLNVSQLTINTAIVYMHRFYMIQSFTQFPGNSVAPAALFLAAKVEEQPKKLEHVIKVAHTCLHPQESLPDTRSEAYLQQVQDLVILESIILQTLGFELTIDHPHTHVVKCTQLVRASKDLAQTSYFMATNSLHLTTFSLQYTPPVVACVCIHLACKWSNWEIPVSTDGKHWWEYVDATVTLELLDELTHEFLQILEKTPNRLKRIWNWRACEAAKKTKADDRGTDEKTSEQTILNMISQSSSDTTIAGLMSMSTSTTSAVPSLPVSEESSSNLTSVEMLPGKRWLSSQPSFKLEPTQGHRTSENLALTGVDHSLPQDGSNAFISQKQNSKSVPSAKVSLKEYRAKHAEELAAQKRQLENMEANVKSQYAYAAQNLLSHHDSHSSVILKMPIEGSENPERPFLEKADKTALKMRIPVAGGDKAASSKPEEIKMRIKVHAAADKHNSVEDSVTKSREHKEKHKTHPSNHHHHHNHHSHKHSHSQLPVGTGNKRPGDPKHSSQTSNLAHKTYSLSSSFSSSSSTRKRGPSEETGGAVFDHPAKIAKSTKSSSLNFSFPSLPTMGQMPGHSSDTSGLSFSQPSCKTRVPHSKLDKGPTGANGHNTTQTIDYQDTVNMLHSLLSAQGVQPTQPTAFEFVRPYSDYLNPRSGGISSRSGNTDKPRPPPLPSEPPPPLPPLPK

IC50 (CDK9/CyclinT1)	Structure (SMILES)	also measured
< 20 nM	Fc1cccc(F)c1-c1nc(N[C@H]2CC[C@H](N3CCOCC3)CC2)n2ncc(Cl)c2n1 [Example #89, 8-chloro-2-(2,6-difluorophenyl)-N-((1r,4r)-4-morpholinocyclohexyl)pyrazolo[1,5-a][1,3,5]triazin-4-amine]	IC50 (CDK2/cyclin A): < 1000 nM; IC50 (CDK2/cyclin A1 [1]): < 200 nM; IC50 (CDK2/cyclin E1): < 200 nM; IC50 (CDK2/cyclin A1 [2]): < 1000 nM
< 20 nM	N[C@H]1CC[C@H](Nc2nc(-c3c(F)cccc3F)nc3c(Cl)cnn23)CC1 [Example #108, (1r,4r)-N1-(8-chloro-2-(2,6-difluorophenyl)pyrazolo[1,5-a][1,3,5]triazin-4-yl)cyclohexane-1,4-diamine]	IC50 (CDK2/cyclin A): < 200 nM; IC50 (CDK2/cyclin A1 [1]): < 20 nM; IC50 (CDK2/cyclin E1): < 200 nM; IC50 (CDK2/cyclin A1 [2]): < 200 nM
< 20 nM	CN(C)[C@H]1CC[C@H](Nc2nc(-c3c(F)cccc3F)nc3c(Cl)cnn23)CC1 [Example #109, (1r,4r)-N1-(8-chloro-2-(2,6-difluorophenyl)pyrazolo[1,5-a][1,3,5]triazin-4-yl)-N4,N4-dimethylcyclohexane-1,4-diamine]	IC50 (CDK2/cyclin A): < 1000 nM; IC50 (CDK2/cyclin A1 [1]): < 200 nM; IC50 (CDK2/cyclin E1): < 200 nM; IC50 (CDK2/cyclin A1 [2]): < 1000 nM
< 1000 nM	Fc1cccc(F)c1-c1nc(N[C@H]2CC[C@@H](N3CCCCC3)CC2)n2ncc(Cl)c2n1 [Example #113, 8-chloro-2-(2,6-difluorophenyl)-N-((1s,4s)-4-(piperidin-1-yl)cyclohexyl)pyrazolo[1,5-a][1,3,5]triazin-4-amine]	
< 1000 nM	Cn1cc(Nc2nc(-c3c(F)cccc3F)nc3c(C(F)(F)F)cnn23)cn1 [Example #115, 2-(2,6-difluorophenyl)-N-(1-methyl-1H-pyrazol-4-yl)-8-(trifluoromethyl)pyrazolo[1,5-a][1,3,5]triazin-4-amine]	
< 20 nM	N[C@@H]1CC[C@@H](Nc2nc(-c3c(F)cccc3F)nc3c(Cl)cnn23)C1 [Example #116, (1R,3R)-N1-(8-chloro-2-(2,6-difluorophenyl)pyrazolo[1,5-a][1,3,5]triazin-4-yl)cyclopentane-1,3-diamine]	
< 20 nM	NC1CCC(Nc2nc(-c3c(F)cccc3F)nc3c(Cl)cnn23)C1 (centres unmarked) [Example #117, N1-(8-chloro-2-(2,6-difluorophenyl)pyrazolo[1,5-a][1,3,5]triazin-4-yl)cyclopentane-1,3-diamine]	
< 20 nM	N[C@H]1CC[C@H](Nc2nc(-c3c(F)cccc3F)nc3c(C(F)(F)F)cnn23)CC1 [Example #118, (1r,4r)-N1-(2-(2,6-difluorophenyl)-8-(trifluoromethyl)pyrazolo[1,5-a][1,3,5]triazin-4-yl)cyclohexane-1,4-diamine]	
< 20 nM	CN(C)[C@@H]1CC[C@@H](Nc2nc(-c3c(F)cccc3F)nc3c(Cl)cnn23)C1 [Example #119, (1R,3R)-N1-(8-chloro-2-(2,6-difluorophenyl)pyrazolo[1,5-a][1,3,5]triazin-4-yl)-N3,N3-dimethylcyclopentane-1,3-diamine]	
< 200 nM	CN(C)[C@H]1CC[C@H](Nc2nc(-c3c(F)cccc3F)nc3c(C(F)(F)F)cnn23)CC1 [Example #120, (1r,4r)-N1-(2-(2,6-difluorophenyl)-8-(trifluoromethyl)pyrazolo[1,5-a][1,3,5]triazin-4-yl)-N4,N4-dimethylcyclohexane-1,4-diamine]	
< 200 nM	N[C@@H]1CC[C@H](Nc2nc(-c3c(F)cccc3F)nc3c(Cl)cnn23)C1 [Example #125, (1S,3R)-N1-(8-chloro-2-(2,6-difluorophenyl)pyrazolo[1,5-a][1,3,5]triazin-4-yl)cyclopentane-1,3-diamine]	
< 20 nM	OCCN[C@H]1CC[C@H](Nc2nc(-c3c(F)cccc3F)nc3c(Cl)cnn23)CC1 [Example #127, 2-(((1r,4r)-4-((8-chloro-2-(2,6-difluorophenyl)pyrazolo[1,5-a][1,3,5]triazin-4-yl)amino)cyclohexyl)amino)ethan-1-ol]	
< 20 nM	NC1CC(Nc2nc(-c3c(F)cccc3F)nc3c(Cl)cnn23)C1 (centres unmarked) [Example #129, (1r,3r)-N1-(8-chloro-2-(2,6-difluorophenyl)pyrazolo[1,5-a][1,3,5]triazin-4-yl)cyclobutane-1,3-diamine]	
< 200 nM	CN(C)[C@H]1C[C@H](Nc2nc(-c3c(F)cccc3F)nc3c(Cl)cnn23)C1 [Example #130, (1r,3r)-N1-(8-chloro-2-(2,6-difluorophenyl)pyrazolo[1,5-a][1,3,5]triazin-4-yl)-N3,N3-dimethylcyclobutane-1,3-diamine]	
< 200 nM	CN(C)C1CCC(Nc2nc(-c3c(F)cc(F)cc3F)nc3c(Cl)cnn23)CC1 (centres unmarked) [Example #131, (1r,4r)-N1-(8-chloro-2-(2,4,6-trifluorophenyl)pyrazolo[1,5-a][1,3,5]triazin-4-yl)-N4,N4-dimethylcyclohexane-1,4-diamine]	
< 200 nM	Cc1cc(F)c(-c2nc(NC3CCC(N(C)C)CC3)n3ncc(Cl)c3n2)c(F)c1 (centres unmarked) [Example #132, (1r,4r)-N1-(8-chloro-2-(2,6-difluoro-4-methylphenyl)pyrazolo[1,5-a][1,3,5]triazin-4-yl)-N4,N4-dimethylcyclohexane-1,4-diamine]	
< 20 nM	CN(CCO)C1CCC(Nc2nc(-c3c(F)cccc3F)nc3c(Cl)cnn23)CC1 (centres unmarked) [Example #133, 2-(((1r,4r)-4-((8-chloro-2-(2,6-difluorophenyl)pyrazolo[1,5-a][1,3,5]triazin-4-yl)amino)cyclohexyl)(methyl)amino)ethan-1-ol]	
< 20 nM	CN(CCCO)C1CCC(Nc2nc(-c3c(F)cccc3F)nc3c(Cl)cnn23)CC1 (centres unmarked) [Example #134, 3-({4-[8-Chloro-2-(2,6-difluoro-phenyl)-pyrazolo[1,5-a][1,3,5]triazin-4-ylamino]-cyclohexyl}-methyl-amino)-propan-1-ol]	
< 20 nM	CN(CCCF)[C@H]1CC[C@H](Nc2nc(-c3c(F)cccc3F)nc3c(Cl)cnn23)CC1 [Example #135, (1r,4r)-N1-(8-chloro-2-(2,6-difluorophenyl)pyrazolo[1,5-a][1,3,5]triazin-4-yl)-N4-(3-fluoropropyl)-N4-methylcyclohexane-1,4-diamine]	
< 20 nM	Fc1cccc(F)c1-c1nc(NC2CCC(N3CCCC3)CC2)n2ncc(Cl)c2n1 (centres unmarked) [Example #138, 8-chloro-2-(2,6-difluorophenyl)-N-((1r,4r)-4-(pyrrolidin-1-yl)cyclohexyl)pyrazolo[1,5-a][1,3,5]triazin-4-amine]	
< 200 nM	C#Cc1cnn2c(N[C@H]3CC[C@H](N4CCOCC4)CC3)nc(-c3c(F)cccc3F)nc12 [Example #139, 2-(2,6-difluorophenyl)-8-ethynyl-N-((1r,4r)-4-morpholinocyclohexyl)pyrazolo[1,5-a][1,3,5]triazin-4-amine]	
< 200 nM	Fc1cccc(F)c1-c1nc(N[C@H]2CC[C@H](N3CCOCC3)CC2)n2ncc(I)c2n1 [Example #140, 2-(2,6-difluorophenyl)-8-iodo-N-((1r,4r)-4-morpholinocyclohexyl)pyrazolo[1,5-a][1,3,5]triazin-4-amine]	
< 20 nM	CN1CCC(Nc2nc(-c3c(F)cccc3F)nc3c(Cl)cnn23)CC1 [Example #141, 8-chloro-2-(2,6-difluorophenyl)-N-(1-methylpiperidin-4-yl)pyrazolo[1,5-a][1,3,5]triazin-4-amine]	
< 20 nM	CN1CCN([C@H]2CC[C@H](Nc3nc(-c4c(F)cccc4F)nc4c(Cl)cnn34)CC2)CC1 [Example #144, 8-chloro-2-(2,6-difluorophenyl)-N-((1r,4r)-4-(4-methylpiperazin-1-yl)cyclohexyl)pyrazolo[1,5-a][1,3,5]triazin-4-amine]	
< 20 nM	Fc1cccc(F)c1-c1nc(NCc2cccnc2)n2ncc(Cl)c2n1 [Example #146, 8-chloro-2-(2,6-difluorophenyl)-N-(pyridin-3-ylmethyl)pyrazolo[1,5-a][1,3,5]triazin-4-amine]	

Structure (SMILES)	IC50 (CDK9/CyclinT1)	also measured
Cc1cc(C)c(CNc2nc(-c3c(F)cccc3F)nc3c(Cl)cnn23)cn1 [Example #145, 8-chloro-2-(2,6-difluorophenyl)-N-((4,6-dimethylpyridin-3-yl)methyl)pyrazolo[1,5-a][1,3,5]triazin-4-amine]	< 20 nM	
